According to US11957792B2, “Taste-masked pharmaceutical compositions containing diclofenac” (GLATT AG, priority 2012, dated 2024):
Values after ≈ are worked out from the molar mass of the structure shown.

Key:
[1] = Agglomerate formation at pH 1.1 (such as gastric fluid); format: physicochemical
[2] = Equilibrium solubility, saturation shake-flask method; format: physicochemical; settings: 37 °C, thermodynamic from solid, mean ± SD (n=3)
Experimental: The solubility of diclofenac free acid, sodium and potassium was comparatively evaluated in media reflecting the oral way of administration, as e.g. with different pH values. The equilibrium solubility was determined using the saturation shake-flask method. Briefly, an excess amount of drug was added into the different media maintained at 37±0.5° C. and shaken for at least 24 hours. After equilibrium was reached, the excess of solid was removed and the diclofenac concentration in the supernatant solutions was determined by HPLC.

## O=C(O)Cc1ccccc1Nc1c(Cl)cccc1Cl [Diclofenac potassium]
[1]
  formation of agglomerates: form agglomerates

## O=C(O)Cc1ccccc1Nc1c(Cl)cccc1Cl [Diclofenac acid, 2-[(2,6-Dichlorophenyl)amino]benzeneacetic acid]
[1]
  formation of agglomerates: not diclofenac acid form agglomerates
[2]; 0.1N HCl, pH 1.1, simulated gastric fluid, 0.1N HCl pH 1.1
  solubility: 2.49 ± 0.15 µg/mL (≈ 8.41 µM)
[2]; simulated gastric fluid, pH 1.6, simulated gastric fluid, Simulated gastric fluid pH 1.6
  solubility: 1.72 ± 0.01 µg/mL (≈ 5.81 µM)

## O=C(O)Cc1ccccc1Nc1c(Cl)cccc1Cl [Diclofenac sodium]
[1]
  formation of agglomerates: form agglomerates
